Data reported in ChEMBL document CHEMBL5729407, “Substituted piperidine compounds and their use” (2022).

Assays:
[1] = target: T1, Orexin receptor type 2 (Homo sapiens, UniProt O43614); assay: (§1) Evaluation of Activity for OX1R and OX2R: HEK293 (human embryonic kidney 293) cells with forced expression of human OX1R (hOX1R) or human OX2R (hOX2R) were seeded in a 384-well microplate (Greiner) at 10,000 per well and cultured for 1 day in high-glucose-DMEM (FujiFilm Corp.—Wako Pure Chemical Industries, Ltd.) containing added 10% FBS ([…]) and 1% Penicillin-Streptomycin (FujiFilm Corp.—Wako Pure Chemical Industries, Ltd.). After removing the medium, 40 μL of assay buffer (20 mM HEPES (Sigma-Aldrich Japan, KK.), Hanks' balanced salt solution (Gibco), 0.1% BSA (Sigma-Aldrich Japan, KK.), 0.1% Pluronic F-127 (Invitrogen)) containing Calcium 4 dye (Molecular Device Corporation) and 2.5 mM probenecid (Sigma-Aldrich Japan, KK.) were added, and the plate was incubated for 60 minutes. After further adding 20 μL of assay buffer, 20 μL of assay buffer containing the test compound was added and reaction was initiated. Change in intracellular calcium ion concentration during the reaction was measured based on the fluorescence intensity ratio in terms of the fluorescence value with wavelength excitation at 480 nm and detection at 540 nm, using FDSS7000 (Hamamatsu Photonics, K.K.). The test compound was dissolved in DMSO to 10 mM, and diluted with assay buffer to a final concentration of from 3×10−11 M to 1×10−7 M (DMSO final concentration of 0.1%). […]; assay type: cell-based
T1 sequence (O43614 whole entry): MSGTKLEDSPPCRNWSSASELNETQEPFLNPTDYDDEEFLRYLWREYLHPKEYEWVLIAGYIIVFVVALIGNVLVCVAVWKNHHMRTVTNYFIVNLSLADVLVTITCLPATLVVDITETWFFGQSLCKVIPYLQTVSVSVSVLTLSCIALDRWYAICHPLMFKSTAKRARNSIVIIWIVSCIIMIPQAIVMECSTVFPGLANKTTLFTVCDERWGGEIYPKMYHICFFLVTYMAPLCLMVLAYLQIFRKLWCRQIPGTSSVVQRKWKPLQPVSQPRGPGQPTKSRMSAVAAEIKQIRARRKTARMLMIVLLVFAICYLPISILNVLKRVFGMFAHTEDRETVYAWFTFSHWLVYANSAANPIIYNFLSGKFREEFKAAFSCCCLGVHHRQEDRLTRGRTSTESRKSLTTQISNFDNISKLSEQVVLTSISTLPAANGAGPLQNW

[2] = target: T2, Orexin/Hypocretin receptor type 1 (Homo sapiens, UniProt O43613); assay: as §1; assay type: cell-based
T2 sequence (O43613 whole entry): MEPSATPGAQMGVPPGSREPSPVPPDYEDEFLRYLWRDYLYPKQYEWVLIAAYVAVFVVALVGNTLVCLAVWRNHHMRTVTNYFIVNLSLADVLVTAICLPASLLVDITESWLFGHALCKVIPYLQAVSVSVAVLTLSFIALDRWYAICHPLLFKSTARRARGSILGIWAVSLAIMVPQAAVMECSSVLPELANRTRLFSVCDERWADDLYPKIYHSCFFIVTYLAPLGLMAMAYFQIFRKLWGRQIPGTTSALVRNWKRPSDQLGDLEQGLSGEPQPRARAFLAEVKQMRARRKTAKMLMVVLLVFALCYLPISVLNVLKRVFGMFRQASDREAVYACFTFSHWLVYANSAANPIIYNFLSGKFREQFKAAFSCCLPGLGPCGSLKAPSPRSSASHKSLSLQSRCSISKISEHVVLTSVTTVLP

CO[C@@H]1CN(c2ncc(F)cn2)CC[C@@H]1[C@@H]1C[C@H]2CC[C@@H](C1)N2[C@@H](C(N)=O)C(C)C
EC50 [1]: 3.08 nM | EC50 [2]: > 100 nM
